This is an account of results in patent US9662339B2, “Benzodioxane inhibitors of leukotriene production for combination therapy” (Boehringer Ingelheim International GmbH, priority 2012, dated 2017).

Sequence of human LTA4 hydrolase (P09960 whole entry): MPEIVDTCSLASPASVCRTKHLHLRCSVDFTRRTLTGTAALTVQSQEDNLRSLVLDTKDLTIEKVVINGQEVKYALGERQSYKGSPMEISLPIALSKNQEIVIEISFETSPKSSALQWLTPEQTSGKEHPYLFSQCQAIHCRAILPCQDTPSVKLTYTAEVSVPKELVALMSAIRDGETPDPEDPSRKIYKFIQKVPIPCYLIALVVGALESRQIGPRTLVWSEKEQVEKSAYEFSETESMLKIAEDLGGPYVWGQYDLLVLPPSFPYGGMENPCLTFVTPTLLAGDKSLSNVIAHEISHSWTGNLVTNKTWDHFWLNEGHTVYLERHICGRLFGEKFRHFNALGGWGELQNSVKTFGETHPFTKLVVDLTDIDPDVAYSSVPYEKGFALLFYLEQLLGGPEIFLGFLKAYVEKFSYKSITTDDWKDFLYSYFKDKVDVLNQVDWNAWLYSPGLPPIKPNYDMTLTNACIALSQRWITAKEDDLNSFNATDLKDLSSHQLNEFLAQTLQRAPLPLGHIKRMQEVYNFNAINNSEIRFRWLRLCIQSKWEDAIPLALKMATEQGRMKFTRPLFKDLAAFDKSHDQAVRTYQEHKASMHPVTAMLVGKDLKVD

The assay deals with human LTA4 hydrolase (Homo sapiens (Human), UniProt P09960). Nature of the assay: LTA4H Enzyme assay (cleavage of Arg-AMC, fluorescence). Format: biochemical. As to conditions: LTA4H Enzyme 1 nM, Arg-AMC substrate 50 μM, room temperature 1 h. Here is the method:
The compounds of the invention are assessed for the ability to interact with human LTA4 hydrolase in an enzymatic assay that measures the ability of the enzyme to cleave the peptide bond of arginyl-aminomethylcoumarin (Arg-AMC). LTA4H Enzyme (1 nM final), Arg-AMC substrate (50 μM final), and compound are combined in a reaction buffer (50 mM Tris-HCl (pH 7.5), 100 mM KCl, 0.5% bovine serum albumin) at room temperature for 1 h. The formation of product is assessed by measuring the fluorescence of aminomethylcoumarin product (excitation wavelength 380 nm/emission wavelength 460 nm).
Turning to `c1ccc2c(c1)OCC(c1ccc(CN3CCCC3)cc1)O2` (racemic) [Example 1, 1-[4-(2,3-dihydro-1,4-benzodioxin-2-yl)benzyl]pyrrolidine], it took 0.38 nM to reach half-maximal inhibition (IC50).
With `O[C@H]1CCN(Cc2ccc(C3COc4ccccc4O3)cc2)C1` (mixture of isomers) [Example 9, (3S)-1-[4-(2,3-dihydro-1,4-benzodioxin-2-yl)benzyl]pyrrolidin-3-ol], the IC50 – broadly, the concentration that inhibits the measured activity by half – stood at 1.49 nM. This IC50 lies about 3.9-fold higher than the previous one.
`O=C1CCCN1CC1CCCN(Cc2ccc(C3COc4ccccc4O3)cc2)C1` (racemic) [Example 10, 1-({1-[4-(2,3-dihydro-1,4-benzodioxin-2-yl)benzyl]piperidin-3-yl}methyl)pyrrolidin-2-one] showed an IC50 of 0.75 nM. Against the preceding molecule, the IC50 is about 2-fold lower.
Molecule `c1cnc2c(c1)OCC(c1ccc(CN3CCCC3)cc1)O2` (racemic) [Example 15, 3-[4-(pyrrolidin-1-ylmethyl)phenyl]-2,3-dihydro[1,4]dioxino[2,3-b]pyridine] showed an IC50 of 0.36 nM.
With `c1ccc2c(c1)OCC(c1ccc(CN3CCn4cnnc4C3)cc1)O2` (racemic) [Example 16, 7-[4-(2,3-dihydro-1,4-benzodioxin-2-yl)benzyl]-5,6,7,8-tetrahydro[1,2,4]triazolo[4,3-a]pyrazine], the IC50 worked out at 2.32 nM.
The same measure for `O=S1(=O)CCN(Cc2ccc(C3COc4cccnc4O3)cc2)CC1` (racemic) [Example 17, 3-{4-[(1,1-dioxidothiomorpholin-4-yl)methyl]phenyl}-2,3-dihydro[1,4]dioxino[2,3-b]pyridine]: 0.77 nM; for `c1cnc2c(c1)OCC(c1ccc(CN3CCOCC3)cc1)O2` (racemic) [Example 18, 3-[4-(morpholin-4-ylmethyl)phenyl]-2,3-dihydro[1,4]dioxino[2,3-b]pyridine]: 1.14 nM.
`CNC(=O)C1CCN(Cc2ccc(C3COc4ccccc4O3)cc2)CC1` (racemic) [Example 25, 1-[4-(2,3-Dihydro-benzo[1,4]dioxin-2-yl)-benzyl]-piperidine-4-carboxylic acid methylamide]: the IC50 was found to be 0.76 nM.
Molecule `O=C(O)CCCC1CCN(Cc2ccc(C3COc4ccccc4O3)cc2)CC1` (racemic) [Example 26, 4-{1-[4-(2,3-dihydro-1,4-benzodioxin-2-yl)benzyl]piperidin-4-yl}butanoic acid] displayed an IC50 of 0.43 nM.
`O=C(C1CCN(Cc2ccc(C3COc4ccccc4O3)cc2)CC1)N1CCOCC1` (racemic) [Example 37, {1-[4-(2,3-dihydro-1,4-benzodioxin-2-yl)benzyl]piperidin-4-yl}(morpholin-4-yl)methanone] had an IC50 of 1.05 nM. This IC50 is about 2.4-fold higher than that of the molecule before.
`O=C(NCCO)C1CCN(Cc2ccc(C3COc4ccccc4O3)cc2)CC1` (racemic) [Example 52, 1-[4-(2,3-dihydro-1,4-benzodioxin-2-yl)benzyl]-N-(2-hydroxyethyl)piperidine-4-carboxamide] registered an IC50 of 0.75 nM.
`NC(=O)NC1CCN(Cc2ccc(C3COc4ccccc4O3)cc2)CC1` (racemic) [Example 53, 1-{1-[4-(2,3-dihydro-1,4-benzodioxin-2-yl)benzyl]piperidin-4-yl}urea] yielded an IC50 of 0.42 nM.
The same measure for `Cn1cnc(CNCc2ccc(C3COc4ccccc4O3)cc2)c1` (racemic) [Example 55, 1-[4-(2,3-dihydro-1,4-benzodioxin-2-yl)phenyl]-N-[(1-methyl-1H-imidazol-4-yl)methyl]methanamine]: 3.63 nM; for `c1ccc2c(c1)OCC(c1ccc(CN3CCOCC3)cc1)O2` (centres unmarked) [Example 2, 4-[4-(2,3-dihydro-1,4-benzodioxin-2-yl)benzyl]morpholine]: 2.45 nM; for `CC1(C)CCN(Cc2ccc(C3COc4ccccc4O3)cc2)CC1` (centres unmarked) [Example 3, 1-[4-(2,3-dihydro-1,4-benzodioxin-2-yl)benzyl]-4,4-dimethylpiperidine]: 2.57 nM.
For the molecule `O=C1NCCC12CCN(Cc1ccc(C3COc4ccccc4O3)cc1)CC2` (centres unmarked) [Example 4, 8-[4-(2,3-dihydro-1,4-benzodioxin-2-yl)benzyl]-2,8-diazaspiro[4.5]decan-1-one], it took 0.74 nM to reach half-maximal inhibition (IC50).
Take `FC1CCN(Cc2ccc(C3COc4ccccc4O3)cc2)CC1` (centres unmarked) [Example 5, 1-[4-(2,3-dihydro-1,4-benzodioxin-2-yl)benzyl]-4-fluoropiperidine]: it took 2.96 nM to reach half-maximal inhibition (IC50). This IC50 lies about 4-fold higher than the previous one.
The molecule `O=S1(=O)CCN(Cc2ccc(C3COc4ccccc4O3)cc2)CC1` (centres unmarked) [Example 7, 4-[4-(2,3-dihydro-1,4-benzodioxin-2-yl)benzyl]thiomorpholine 1,1-dioxide] displayed an IC50 of 2.79 nM.
Molecule `CC(=O)N1CCN(Cc2ccc(C3COc4ccccc4O3)cc2)CC1` (centres unmarked) [Example 11, 1-{4-[4-(2,3-dihydro-1,4-benzodioxin-2-yl)benzyl]piperazin-1-yl}ethanone] registered an IC50 of 2.95 nM.
`O=C(CNCc1ccc(C2COc3ccccc3O2)cc1)N1CCCC1` (centres unmarked) [Example 12, 2-{[4-(2,3-dihydro-1,4-benzodioxin-2-yl)benzyl]amino}-1-(pyrrolidin-1-yl)ethanone] showed an IC50 of 10.2 nM.
In turn, `CC(C)(C)NCc1ccc(C2COc3ccccc3O2)cc1` (centres unmarked) [Example 23, N-[4-(2,3-dihydro-1,4-benzodioxin-2-yl)benzyl]-2-methylpropan-2-amine] showed an IC50 of 5.2 nM. This IC50 is about 2-fold lower than that of the molecule before.
For `CC[C@@H](C)NCc1ccc(C2COc3ccccc3O2)cc1` (stereo partly drawn) [Example 24, (2R)-N-[4-(2,3-dihydro-1,4-benzodioxin-2-yl)benzyl]butan-2-amine], the IC50 turned out to be 5.9 nM.
The same measure for `OCC1CCN(Cc2ccc(C3COc4ccccc4O3)cc2)CC1` (centres unmarked) [Example 27, {1-[4-(2,3-dihydro-1,4-benzodioxin-2-yl)benzyl]piperidin-4-yl}methanol]: 1.2 nM.
The molecule `CC(C)(O)C1CCN(Cc2ccc(C3COc4ccccc4O3)cc2)CC1` (centres unmarked) [Example 28, 2-{1-[4-(2,3-dihydro-1,4-benzodioxin-2-yl)benzyl]piperidin-4-yl}propan-2-ol] had an IC50 of 3.4 nM.
`OCCCC1CCN(Cc2ccc(C3COc4ccccc4O3)cc2)CC1` (centres unmarked) [Example 29, 3-{1-[4-(2,3-dihydro-1,4-benzodioxin-2-yl)benzyl]piperidin-4-yl}propan-1-ol] registered an IC50 of 2.04 nM.
`CN1CCCN(Cc2ccc(C3COc4ccccc4O3)cc2)CC1` (centres unmarked) [Example 30, 1-[4-(2,3-dihydro-1,4-benzodioxin-2-yl)benzyl]-4-methyl-1,4-diazepane] displayed an IC50 of 1.77 nM.
`CC(=O)N1CCCN(Cc2ccc(C3COc4ccccc4O3)cc2)CC1` (centres unmarked) [Example 31, 1-{4-[4-(2,3-dihydro-1,4-benzodioxin-2-yl)benzyl]-1,4-diazepan-1-yl}ethanone] yielded an IC50 of 1.54 nM.
The molecule `c1ccc2c(c1)OCC(c1ccc(CN3CCCOCC3)cc1)O2` (centres unmarked) [Example 32, 4-[4-(2,3-dihydro-1,4-benzodioxin-2-yl)benzyl]-1,4-oxazepane] displayed an IC50 of 1.8 nM. This IC50 and that of the molecule before are within 1.5-fold of each other.
`COCCN(C)Cc1ccc(C2COc3ccccc3O2)cc1` (centres unmarked) [Example 33, N-[4-(2,3-dihydro-1,4-benzodioxin-2-yl)benzyl]-2-methoxy-N-methylethanamine] gave an IC50 of 3.19 nM.
In the case of `O[C@@H]1CCN(Cc2ccc(C3COc4ccccc4O3)cc2)C1` (stereo partly drawn) [Example 34, (3R)-1-[4-(2,3-dihydro-1,4-benzodioxin-2-yl)benzyl]pyrrolidin-3-ol], the IC50 was determined as 1.89 nM.
Turning to `O=C1NC(=O)C2(CCN(Cc3ccc(C4COc5ccccc5O4)cc3)CC2)N1` (centres unmarked) [Example 35, 8-[4-(2,3-dihydro-1,4-benzodioxin-2-yl)benzyl]-1,3,8-triazaspiro[4.5]decane-2,4-dione], the IC50 was found to be 0.26 nM.
Regarding `COC1CN(Cc2ccc(C3COc4ccccc4O3)cc2)C1` (centres unmarked) [Example 36, 1-[4-(2,3-dihydro-1,4-benzodioxin-2-yl)benzyl]-3-methoxyazetidine], the IC50 worked out at 4.45 nM.
The same measure for `CN(C)C(=O)CC1CCN(Cc2ccc(C3COc4ccccc4O3)cc2)CC1` (centres unmarked) [Example 38, 2-{1-[4-(2,3-dihydro-1,4-benzodioxin-2-yl)benzyl]piperidin-4-yl}-N,N-dimethylacetamide]: 1.14 nM.
As for `CS(=O)(=O)C1CCN(Cc2ccc(C3COc4ccccc4O3)cc2)CC1` (centres unmarked) [Example 39, 1-[4-(2,3-dihydro-1,4-benzodioxin-2-yl)benzyl]-4-(methylsulfonyl)piperidine], the IC50 is 2.14 nM.
As for `c1ccc2c(c1)OCC(c1ccc(CN3CCCCCC3)cc1)O2` (centres unmarked) [Example 40, 1-[4-(2,3-dihydro-1,4-benzodioxin-2-yl)benzyl]azepane], the IC50 came to 0.82 nM.
The same measure for `c1ccc2c(c1)OCC(c1ccc(CNC3CCCC3)cc1)O2` (centres unmarked) [Example 41, N-[4-(2,3-dihydro-1,4-benzodioxin-2-yl)benzyl]cyclopentanamine]: 3.71 nM; for `CN(CCc1ccccn1)Cc1ccc(C2COc3ccccc3O2)cc1` (centres unmarked) [Example 42, N-[4-(2,3-dihydro-1,4-benzodioxin-2-yl)benzyl]-N-methyl-2-(pyridin-2-yl)ethanamine]: 0.69 nM; for `c1ccc2c(c1)OCC(c1ccc(CNCC3CC3)cc1)O2` (centres unmarked) [Example 43, 1-cyclopropyl-N-[4-(2,3-dihydro-1,4-benzodioxin-2-yl)benzyl]methanamine]: 4.42 nM.
The molecule `CCN(CC)Cc1ccc(C2COc3ccccc3O2)cc1` (centres unmarked) [Example 45, N-[4-(2,3-dihydro-1,4-benzodioxin-2-yl)benzyl]-N-ethylethanamine] came in with an IC50 of 0.9 nM.
The same measure for `N#CC1CN(Cc2ccc(C3COc4ccccc4O3)cc2)C1` (centres unmarked) [Example 46, 1-[4-(2,3-dihydro-1,4-benzodioxin-2-yl)benzyl]azetidine-3-carbonitrile]: 24.8 nM; for `COC1CCN(Cc2ccc(C3COc4ccccc4O3)cc2)C1` (centres unmarked) [Example 47, 1-[4-(2,3-dihydro-1,4-benzodioxin-2-yl)benzyl]-3-methoxypyrrolidine]: 1.73 nM.
